Data published in patent US20240109903A1, “SUBSTITUTED HETEROCYCLES FOR TREATING CANCER” (Northwestern University, priority 2022, published 2024).

Columns and labels:
[1] = system: full NCI 60 cell panel; test: NCI 60 Cell One-dose screen; format: cell-based, human; conditions: single high dose 10^−5 M, NCI 60 panel
Source text: Compounds were submitted to the NCI 60 Cell screen and tested at a single high dose (10^−5 M) in the full NCI 60 cell panel (see the following reference for details of using NCI 60 human tumor cell lines for screening anticancer drugs: Shoemaker R H. The NCI60 human tumor cell line anticancer drug screen. Nature Rev Cancer 2006; 6: 813-23). The One-dose data is reported as a mean graph of the percent growth of treated cells. The number reported for the One-dose assay is growth relative to the no-drug control, and relative to the time zero number of cells. This allows detection of both growth inhibition (values between 0 and 100) and lethality (values less than 0). For example, a value of 100 means no growth inhibition. A value of 40 would mean 60% growth inhibition. A value of 0 means no net growth over the course of the experiment. A value of −40 would mean 40% lethality. A value of −100 means all cells are dead. FIGS. 1-8 show the mean graph of percent growth against the NCI-60 cell panel for NUCC-0226674, NUCC-0226679, NUCC-0226680, NUCC-0226683, NUCC-0226689, NUCC-0226694, NUCC-0226695, and NUCC-0226698.

[2] = system: A549/ATCC; test: NCI 60 five-dose screen A549/ATCC; format: cell-based; conditions: Homo sapiens, five-dose
[3] = system: EKVX; test: NCI 60 five-dose screen EKVX; format: cell-based; conditions: Homo sapiens, five-dose
[4] = system: HOP-92; test: NCI 60 five-dose screen HOP-92; format: cell-based; conditions: Homo sapiens, five-dose
[5] = system: NCI-H322M; test: NCI 60 five-dose screen NCI-H322M; format: cell-based; conditions: Homo sapiens, five-dose
[6] = system: NCI-H460; test: NCI 60 five-dose screen NCI-H460; format: cell-based; conditions: Homo sapiens, five-dose
[7] = system: NCI-H522; test: NCI 60 five-dose screen NCI-H522; format: cell-based; conditions: Homo sapiens, five-dose
[8] = system: COLO 205; test: NCI 60 five-dose screen COLO 205; format: cell-based; conditions: Homo sapiens, five-dose
[9] = system: SW-620; test: NCI 60 five-dose screen SW-620; format: cell-based; conditions: Homo sapiens, five-dose
[10] = system: SF-295; test: NCI 60 five-dose screen SF-295; format: cell-based; conditions: Homo sapiens, five-dose
[11] = system: SNB-75; test: NCI 60 five-dose screen SNB-75; format: cell-based; conditions: Homo sapiens, five-dose
[12] = system: LOX IMVI; test: NCI 60 five-dose screen LOX IMVI; format: cell-based; conditions: Homo sapiens, five-dose
[13] = system: MDA-MB-435; test: NCI 60 five-dose screen MDA-MB-435; format: cell-based; conditions: Homo sapiens, five-dose
[14] = system: SK-MEL-2; test: NCI 60 five-dose screen SK-MEL-2; format: cell-based; conditions: Homo sapiens, five-dose
[15] = system: NCI/ADR-RES; test: NCI 60 five-dose screen NCI/ADR-RES; format: cell-based; conditions: Homo sapiens, five-dose
[16] = system: 786-0; test: NCI 60 five-dose screen 786-0; format: cell-based; conditions: Homo sapiens, five-dose
[17] = system: ACHN; test: NCI 60 five-dose screen ACHN; format: cell-based; conditions: Homo sapiens, five-dose
[18] = system: CAKI-1; test: NCI 60 five-dose screen CAKI-1; format: cell-based; conditions: Homo sapiens, five-dose
[19] = system: SN12C; test: NCI 60 five-dose screen SN12C; format: cell-based; conditions: Homo sapiens, five-dose
[20] = system: UO-31; test: NCI 60 five-dose screen UO-31; format: cell-based; conditions: Homo sapiens, five-dose
[21] = system: PC-3; test: NCI 60 five-dose screen PC-3; format: cell-based; conditions: Homo sapiens, five-dose
[22] = system: BT-549; test: NCI 60 five-dose screen BT-549; format: cell-based; conditions: Homo sapiens, five-dose
[23] = system: T-47D; test: NCI 60 five-dose screen T-47D; format: cell-based; conditions: Homo sapiens, T47D, five-dose
[24] = system: MDA-MB-468; test: NCI 60 five-dose screen MDA-MB-468; format: cell-based; conditions: Homo sapiens, five-dose
[25] = read-out: LC50 (the source's name) (converted)

## FC(F)(F)CN1CCN(CCn2c(C(F)(F)F)cc3c(Cl)ncnc32)CC1 [NUCC-0226683]
[1]
  growth inhibition in the One-Dose Screen: significant growth inhibition
[2]
  GI50: 52.5 µM
  IC50: 89.1 µM
  IC (TGI): 100 µM
[2]; [25]
  CC50: ≥ 100 µM
[3]
  GI50: 11.7 µM
  IC50: 28.8 µM
  IC (TGI): 40.7 µM
[3]; [25]
  CC50: ≥ 100 µM
[4]
  GI50: 12.9 µM
  IC50: 32.4 µM
  IC (TGI): 29.5 µM
[4]; [25]
  CC50: 66.1 µM
[5]
  GI50: 5.5 µM
  IC50: 15.8 µM
  IC (TGI): 19.1 µM
[5]; [25]
  CC50: 44.7 µM
[6]
  GI50: 2.69 µM
  IC50: 3.63 µM
  IC (TGI): 6.76 µM
[6]; [25]
  CC50: 30.9 µM
[7]
  GI50: 1.7 µM
  IC50: 3.24 µM
  IC (TGI): 3.55 µM
[7]; [25]
  CC50: 7.24 µM
[8]
  GI50: 18.6 µM
  IC50: 33.9 µM
  IC (TGI): 45.7 µM
[8]; [25]
  CC50: ≥ 100 µM
[9]
  GI50: 4.9 µM
  IC50: 6.17 µM
  IC (TGI): 19.5 µM
[9]; [25]
  CC50: 63.1 µM
[10]
  GI50: 10.2 µM
  IC50: 17.8 µM
  IC (TGI): 25.7 µM
[10]; [25]
  CC50: 64.6 µM
[11]
  GI50: 3.09 µM
  IC50: 14.8 µM
  IC (TGI): 14.1 µM
[11]; [25]
  CC50: 38.9 µM
[12]
  GI50: 1.66 µM
  IC50: 2.95 µM
  IC (TGI): 3.09 µM
[12]; [25]
  CC50: 5.75 µM
[13]
  GI50: 5.5 µM
  IC50: 9.12 µM
  IC (TGI): 19.5 µM
[13]; [25]
  CC50: 51.3 µM
[14]
  GI50: 15.8 µM
  IC50: 31.6 µM
  IC (TGI): 30.9 µM
[14]; [25]
  CC50: 60.3 µM
[15]
  GI50: 19.1 µM
  IC50: 35.5 µM
  IC (TGI): 46.8 µM
[15]; [25]
  CC50: ≥ 100 µM
[16]
  GI50: 22.4 µM
  IC50: 37.2 µM
  IC (TGI): 60.3 µM
[16]; [25]
  CC50: ≥ 100 µM
[17]
  GI50: 12.3 µM
  IC50: 22.4 µM
  IC (TGI): 100 µM
[17]; [25]
  CC50: ≥ 100 µM
[18]
  GI50: 13.5 µM
  IC50: 25.7 µM
  IC (TGI): 30.9 µM
[18]; [25]
  CC50: 69.2 µM
[19]
  GI50: 7.76 µM
  IC50: 13.8 µM
  IC (TGI): 22.9 µM
[19]; [25]
  CC50: 60.3 µM
[20]
  GI50: 1.62 µM
  IC50: 3.02 µM
  IC (TGI): 3.24 µM
[20]; [25]
  CC50: 6.61 µM
[21]
  GI50: 3.55 µM
  IC50: 5.01 µM
  IC (TGI): 12 µM
[21]; [25]
  CC50: 57.5 µM
[22]
  GI50: 12.9 µM
  IC50: 26.9 µM
  IC (TGI): 26.9 µM
[22]; [25]
  CC50: 55 µM
[23]
  GI50: 17.4 µM
  IC50: 49 µM
  IC (TGI): 63.1 µM
[23]; read-out: LC50 (the source's name)
  CC50: ≥ 100 µM
[24]
  GI50: 2.19 µM
  IC50: 6.03 µM
  IC (TGI): 4.9 µM
[24]; [25]
  CC50: 14.1 µM
